This is an account of results in patent EP4144350B1, “TREATMENT OR PREVENTION OF VASCULAR MALFORMATION” (Universitätsmedizin Greifswald, priority 2021, dated 2023).

One data set deals with CI-huVECs. The data set can be described thus: Bright-field microscopy of EC morphology after compound treatment. The format is cell-based, human. As to conditions: library screening follow-up (Fig. 14).
Data set [1] deals with CCM3^-/- CI-huVECs. The data set can be described thus: CyQuant cell proliferation assay combined with mutant allele frequencies, co-culture (mutant cells). As to conditions: six days. The format is cell-based, human. On the procedure:
(§1) Clonally expanded CI-huVEC lines with biallelic loss-of-function variants in the first coding exon of CCM3 have been described before or were established according to a published CRISPR/Cas9 genome editing protocol. Blood outgrowth endothelial cells (BOECs) were cultured in EGM-2 medium (Lonza, Basel, Switzerland) supplemented with 18 % FCS. With the approval of the local ethics committee (University Medicine Greifswald, Germany; No.: BB 047/14a), CCM1^-/- BOECs had been established previously from CCM1^+/- BOECs of a CCM1 mutation carrier with CRISPR/Cas9 genome editing. Mutant and wild-type ECs were co-cultured in 96-well plates under standard culture conditions with the indicated mutant-to-wild-type ratios. 2500 cells were seeded per well. The proliferation rate of mutant and wild-type ECs in monoculture was quantified with the CyQuant® Cell Proliferation Assay Kit (C7026, Thermo Fisher Scientific). To discriminate the proliferation rates of CCM3^+/+ and CCM3^-/- CI-huVEC in co-culture, the CyQuant® Cell Proliferation Assay results were combined with mutant allele frequencies that had been determined by amplicon deep sequencing. To analyse their sensitivity to apoptosis, mutant and wild-type ECs were seeded in 96-well plates with 15.000 cells per well, and treated with staurosporine ([…], Sigma-Aldrich, St. Louis, MO, USA) 24 h later. The Caspase-3 DEVD-R110 Fluorometric HTS Assay Kit (30009, Biotium, Fremont, CA, USA), the Cell Meter^TM Caspase 8 Activity Apoptosis Assay Kit (22798, AAT Bioquest, Sunnyvale, CA, USA), and the Cell Meter^TM Caspase 9 Activity Apoptosis Assay Kit (22799, AAT Bioquest) were used following the manufacturer's instructions.

Data set [2] relates to CCM3^-/- CI-huVECs in co-culture with CCM3^+/+ CI-huVECs. Put plainly: Spike-in co-culture assay / apoptosis compound library screening: CCM3 knockout allele frequency by amplicon deep sequencing. The format is cell-based, human. On the procedure:
(§2) Clonally expanded CI-huVEC lines with biallelic loss-of-function variants in the first coding exon of CCM3 have been described before or were established according to a published CRISPR/Cas9 genome editing protocol. Blood outgrowth endothelial cells (BOECs) were cultured in EGM-2 medium (Lonza, Basel, Switzerland) supplemented with 18 % FCS. With the approval of the local ethics committee (University Medicine Greifswald, Germany; No.: BB 047/14a), CCM1^-/- BOECs had been established previously from CCM1^+/- BOECs of a CCM1 mutation carrier with CRISPR/Cas9 genome editing. Mutant and wild-type ECs were co-cultured in 96-well plates under standard culture conditions with the indicated mutant-to-wild-type ratios. 2500 cells were seeded per well.
An apoptosis compound library with 189 small molecules that target apoptosis, survival and proliferation was used in a high throughput screening approach (HY-L003[HY-LD-000001651]; MedChem Express, Monmouth Junction, NJ, USA). Co-cultures were treated with 10 µM of each substrate for six days. Compounds were added 5 h and 3 days after cell seeding.
NSC59984 (IUPAC: (2E)-1-(4-Methyl-1-piperazinyl)-3-(5-nitro-2-furyl)-2-propen-1-one, HY19726, MedChem Express), was used for individual experiments with the indicated concentrations.
(§3) The fraction of mutant alleles in co-culture were analysed by amplicon deep sequencing or T7EI cleavage assay. In brief, genomic target regions were first amplified by PCR. For T7E1 cleavage assays, heteroduplexes were formed and digested with T7EI enzyme (New England Biolabs, Frankfurt am Main, Germany). Cleavage products were visualised by gel electrophoresis and analysed with the Image Lab software (v6.0, Bio-Rad, Hercules, CA, USA). For NGS analysis, sequencing adapters and individual barcodes were introduced in a second round of PCR [7]. Sequencing libraries were pooled and sequenced on a MiSeq instrument with 2 x 150 cycles (Illumina, San Diego, CA, USA). The data were analysed with the SeqNext software (JSI Medical Systems, Ettenheim, Germany).

Data set [3] relates to CCM3^-/- CI-huVECs. The data set can be described thus: Cell cycle analysis by flow cytometry. The data set is classed as cell-based, human. Conditions: 10 µM, 72 h; DMSO 75.9 %. On the procedure: Plating efficiencies were determined as follows: CCM3^+/+ and CCM3^-/- CI-huVEC were seeded in 6-well-plates with either 100 or 250 cells per well. Colonies fixed and stained after eight days with a solution of glutaraldehyde (G6257, Sigma-Aldrich, final concentration 6 %) and crystal violet (HT901, Sigma-Aldrich, final concentration 0.5 %). The plating efficiency was defined as the ratio between the number of colonies and the number of plated cells. A cell cycle analysis kit (MAK344, Sigma-Aldrich) was used to determine cell cycle profiles by flowcytometry (LSRII Flow Cytometer System, BD Biosciences, San Jose, CA, USA). One day after plating, cells were synchronised for 24 h with ECGM supplemented with 0.1 % FCS. Prior to FACS analysis, cells were incubated with ECGM + 10 % FCS for another 24 h or treated with 10 µM NSC59984 for 72 h. Data were analysed with FlowJo v10.7.1 (BD Biosciences).
Background: A flow cytometer gives signals particle by particle.

For a further data set, the system named is CCM3^+/+ CI-huVECs. Put plainly: CyQuant cell proliferation assay combined with mutant allele frequencies, co-culture (wild-type cells). The format is cell-based, human. As to conditions: six days. On the procedure:
as §1, with “The Caspase-3 DEVD-R110 Fluorometric HTS Assay Kit (30009, Biotium, Fremont, CA, USA), the Cell Meter^TM Caspase 8 Activity Apoptosis Assay Kit (22798, AAT Bioquest, Sunnyvale, CA, USA), and the Cell Meter^TM Caspase 9 Activity Apoptosis Assay Kit (22799, AAT Bioquest) were used following the manufacturer's instructions.” left out

Data set [4] has as its system CCM1^-/- BOECs in co-culture with CCM1^+/- BOECs. Put plainly: Co-culture of patient-specific BOECs, frequency of second knockout allele. As to conditions: 10 µM (Fig. 23). The format is cell-based, human. On the procedure:
as §2
as §3, with “Sequencing libraries were pooled and sequenced on a MiSeq instrument with 2 x 150 cycles (Illumina, San Diego, CA, USA).” left out

Data set [5] concerns CCM3^-/- cells in fusion organoids. Put plainly: hiPSC-derived vascular fusion organoids, fluorescence imaging. The format is cell-based, human. As to conditions: 10 µM, continuous culture, imaged day 5, 7, 10. On the procedure:
hiPSCs were differentiated into vascular organoids according to the protocol of Wimmer and colleagues. Briefly, 800,000 hiPSCs were seeded in ultra-low attachment 6-well plates (Corning) in aggregation medium for 2 days until aggregates had formed. On day 0, mesodermal induction was initiated with CHIR99021 (Tocris Bioscience, Bristol, United Kingdom) and BMP-4 (Miltenyi Biotec) in N2B27 medium. Supplementation of VEGF-A (PeproTech, Inc., Rocky Hill, NJ, USA) and forskolin (Sigma-Aldrich) on day 3 induced vascular differentiation. On day 5, vascular aggregates were embedded in a collagen I-Matrigel matrix. VEGF-A, FGF-2 (Miltenyi Biotec), and FBS (Thermo Fisher Scientific) enriched StemPro-34 medium (Thermo Fisher Scientific) was added for vessel sprouting. Vascular network extraction was performed on day 10.

A further data set deals with human tumour cell lines. As to conditions: cited from earlier work.

`CN1CCN(C(=O)/C=C/c2ccc([N+](=O)[O-])o2)CC1` [NSC59984, (E)-1-(4-methylpiperazin-1-yl)-3-(5-nitrofuran-2yl)prop-2-en-1-one]: in the data set with CI-huVECs, the “EC morphology / endothelial phenotype” value is reported as “minimal effects on EC morphology”. The “Relative proliferation rate of CCM3^-/- CI-huVECs” value amounted to 4632% in the data set on CCM3^-/- CI-huVECs [1] (1 µM), 1671% in the data set on CCM3^-/- CI-huVECs [1] (5 µM) and 419% in the data set with CCM3^-/- CI-huVECs [1] (10 µM). Moreover, in data set [2] (10 µM (Fig. 20)), the “Mutant EC expansion at high spike-in ratios” value is “blocked mutant EC expansion even at high spike-in ratios but did not decrease mutant allele frequencies”. Also, the “Clonal expansion of mutant ECs after end of treatment” value in data set [2] (10 µM for six days, then seven additional days without treatment (Fig. 21)) is on record as “still efficiently blocked after the end of NSC59984 treatment”. In data set [2] (10 µM of each compound, six days, added 5 h and 3 days after seeding, DMSO-treated co-culture controls 33.5 %), this compound came in with a Knockout allele frequencies of 10.2%. The “Mutant EC expansion after pretreatment of CCM3^-/- CI-huVECs before co-culture” value in data set [2] (6 days co-culture without additional treatment (Fig. 22)) is “completely prevented mutant EC expansion”. Further, the “Clonal expansion of CCM3^-/- CI-huVECs in co-culture” value in data set [2] (different concentrations (Fig. 18)) was “blocked the clonal expansion of CCM3^-/- CI-huVECs in a concentration-dependent manner”. Further, the “Cells in G0/G1 (G0/G1 arrest)” value with CCM3^-/- CI-huVECs [3] is 87.7%. Further, the “Proliferation rate of wild-type ECs” value in the data set on CCM3^+/+ CI-huVECs (10 µM) amounted to 295%; in the data set with CCM3^+/+ CI-huVECs (starting value of the decrease, concentration not printed (by parallel 1 µM)), 761%. Besides, the “Expansion of CCM1^-/- BOECs in co-culture” value in data set [4] is on record as “significantly blocked the expansion of CCM1^-/- BOECs”. The “Proliferation of CCM3^-/- cells in fusion organoids” value in data set [5] is on record as “inhibited the proliferation of CCM3^-/- cells in fusion organoids”. For the same compound, the “Cell growth of tumour cell lines” value in the data set with human tumour cell lines is recorded as “reduce cell growth in various human tumour cell lines”. The “Genotoxic effects on normal cells” value with human tumour cell lines is “minimal genotoxic effects on normal cells”.
